Results from ChEMBL document CHEMBL5365466, “Discovery of Triazolyl Derivatives of Cucurbitacin B Targeting IGF2BP1 against Non-Small Cell Lung Cancer” (J Med Chem, 2023).

Legend:
[1] = Antiproliferative activity against human L02 cells assessed as cell growth inhibition incubated for 72 hrs by SRB assay; type: toxicity, cell-based
HCT-116 [2] = experiment: Antiproliferative activity against human HCT-116 cells assessed as cell growth inhibition incubated for 72 hrs by SRB assay; type: functional, cell-based; conditions: HCT-116, 72 h
HCT-116 [3] = experiment: Antiproliferative activity against human HCT-116 cells assessed as cell growth inhibition at 0.1 uM incubated for 72 hrs by SRB assay; type: functional
[4] = Antiproliferative activity against human L02 cells assessed as cell growth inhibition at 0.1 uM incubated for 72 hrs by SRB assay; type: toxicity, cell-based
[5] = Selectivity index, ratio of IC50 for antiproliferative activity against human L02 cells to IC50 for antiproliferative activity against human HCT-116 cells; type: toxicity, cell-based; conditions: L02 cells versus HCT-116 cells, read-out: Ratio IC50
HCT-116 [6] = experiment: Antiproliferative activity against human HCT-116 cells assessed as cell growth inhibition at 1 uM incubated for 72 hrs by SRB assay; type: functional
[7] = Antiproliferative activity against human L02 cells assessed as cell growth inhibition at 1 uM incubated for 72 hrs by SRB assay; type: toxicity, cell-based
A549 = experiment: Antiproliferative activity against human A549 cells assessed as cell growth inhibition; type: functional, cell-based

SMILES | IC50 (HCT-116 [2]) [nM] | IC50 (A549) [nM] | IC50 at 72 h [1] [nM] | inhibition at 0.1 µM (HCT-116 [3]) [%] | inhibition at 72 h, 0.1 µM [4] [%] | selectivity ratio [5] | inhibition at 1 µM (HCT-116 [6]) [%] | inhibition at 72 h, 1 µM [7] [%]
CC(=O)OC(C)(C)/C=C/C(=O)[C@](C)(O)[C@H]1[C@H](O)C[C@@]2(C)[C@@H]3CC=C4[C@@H](C[C@H](OC(=O)Cn5ncn(-c6ccccc6)c5=O)C(=O)C4(C)C)[C@]3(C)C(=O)C[C@]12C | 51 |  | 80 | 67.9 | 59.6 | 1.57 | 82.2 | 71.6
COc1cc(-n2cnn(CC(=O)O[C@H]3C[C@@H]4C(=CC[C@@H]5[C@@]4(C)C(=O)C[C@]4(C)[C@@H]([C@@](C)(O)C(=O)/C=C/C(C)(C)OC(C)=O)[C@H](O)C[C@@]54C)C(C)(C)C3=O)c2=O)cc(OC)c1OC | 37 |  | 30 | 78 | 66 | 0.81 | 84.2 | 70
CC(=O)OC(C)(C)/C=C/C(=O)[C@](C)(O)[C@H]1[C@H](O)C[C@@]2(C)[C@@H]3CC=C4[C@@H](C[C@H](OC(=O)c5cn(-c6ccc(Cl)cc6)nn5)C(=O)C4(C)C)[C@]3(C)C(=O)C[C@]12C |  |  |  | 35.1 | 12.5 |  | 94 | 72.6
CC(=O)OC(C)(C)/C=C/C(=O)[C@](C)(O)[C@H]1[C@H](O)C[C@@]2(C)[C@@H]3CC=C4[C@@H](C[C@H](OC(=O)c5cn(-c6ccc(Br)cc6)nn5)C(=O)C4(C)C)[C@]3(C)C(=O)C[C@]12C |  |  |  | 15.6 | 0.01 |  | 93 | 73.6
CC(=O)OC(C)(C)/C=C/C(=O)[C@](C)(O)[C@H]1[C@H](O)C[C@@]2(C)[C@@H]3CC=C4[C@@H](C[C@H](OC(=O)c5ccco5)C(=O)C4(C)C)[C@]3(C)C(=O)C[C@]12C |  |  |  | 22.1 | 20 |  | 83.5 | 69.2
CC(=O)OC(C)(C)/C=C/C(=O)[C@](C)(O)[C@H]1[C@H](OC(=O)/C=C/c2ccc(C)cc2)C[C@@]2(C)[C@@H]3CC=C4[C@@H](C[C@H](OC(=O)/C=C/c5ccc(C)cc5)C(=O)C4(C)C)[C@]3(C)C(=O)C[C@]12C |  |  |  | 0.65 | -13.3 |  | 4.21 | 8.01
CC(=O)OC(C)(C)/C=C/C(=O)[C@](C)(O)[C@H]1[C@H](OC(=O)/C=C/c2ccc(F)cc2)C[C@@]2(C)[C@@H]3CC=C4[C@@H](C[C@H](O)C(=O)C4(C)C)[C@]3(C)C(=O)C[C@]12C |  |  |  | 5.23 | 7.68 |  | 1.19 | 67
CC(=O)OC(C)(C)/C=C/C(=O)[C@](C)(O)[C@H]1[C@H](OC(=O)/C=C/c2ccccc2)C[C@@]2(C)[C@@H]3CC=C4[C@@H](C[C@H](O)C(=O)C4(C)C)[C@]3(C)C(=O)C[C@]12C |  |  |  | 2.73 | 1.86 |  | 16.5 | 13.2
CC(=O)OC(C)(C)/C=C/C(=O)[C@](C)(O)[C@H]1[C@H](O)C[C@@]2(C)[C@@H]3CC=C4[C@@H](C[C@H](OC(=O)/C=C/c5ccc(C)cc5)C(=O)C4(C)C)[C@]3(C)C(=O)C[C@]12C |  |  |  | 0.24 | 1.88 |  | 55.6 | 44.1
COc1ccc(/C=C/C(=O)O[C@H]2C[C@@H]3C(=CC[C@@H]4[C@@]3(C)C(=O)C[C@]3(C)[C@@H]([C@@](C)(O)C(=O)/C=C/C(C)(C)OC(C)=O)[C@H](O)C[C@@]43C)C(C)(C)C2=O)cc1 |  |  |  | 5.28 | -9.08 |  | 79.4 | 67.3
CC(=O)OC(C)(C)/C=C/C(=O)[C@](C)(O)[C@H]1[C@H](O)C[C@@]2(C)[C@@H]3CC=C4[C@@H](C[C@H](OC(=O)Cn5ncn(-c6ccc(C)cc6)c5=O)C(=O)C4(C)C)[C@]3(C)C(=O)C[C@]12C | 121 |  | 40 | 72.5 | 36.5 | 0.33 | 82.1 | 68.2
CC(=O)OC(C)(C)/C=C/C(=O)[C@](C)(O)[C@H]1[C@H](O)C[C@@]2(C)[C@@H]3CC=C4[C@@H](C[C@H](OC(=O)Cn5ncn(-c6ccc(Cl)cc6)c5=O)C(=O)C4(C)C)[C@]3(C)C(=O)C[C@]12C | 63 |  | 31 | 69 | 61.3 | 0.49 | 84.4 | 70.9

Further lines, with some results ahead:

IC50 (HCT-116 [2]) [nM] | IC50 (A549) [nM] | SMILES | IC50 at 72 h [1] [nM] | inhibition at 0.1 µM (HCT-116 [3]) [%] | inhibition at 72 h, 0.1 µM [4] [%] | selectivity ratio [5] | inhibition at 1 µM (HCT-116 [6]) [%] | inhibition at 72 h, 1 µM [7] [%]
76 |  | CC(=O)OC(C)(C)/C=C/C(=O)[C@](C)(O)[C@H]1[C@H](O)C[C@@]2(C)[C@@H]3CC=C4[C@@H](C[C@H](OC(=O)Cn5ncn(-c6ccc(Br)cc6)c5=O)C(=O)C4(C)C)[C@]3(C)C(=O)C[C@]12C | 31 | 70.8 | 54.1 | 0.41 | 84.2 | 67.5
 | 120 | CC(=O)OC(C)(C)/C=C/C(=O)[C@](C)(O)[C@H]1[C@H](O)C[C@@]2(C)[C@@H]3CC=C4[C@@H](C[C@H](N)C(=O)C4(C)C)[C@]3(C)C(=O)C[C@]12C |  |  |  |  |  | 
31 |  | CC(=O)OC(C)(C)/C=C/C(=O)[C@](C)(O)[C@H]1[C@H](O)C[C@@]2(C)[C@@H]3CC=C4[C@@H](C[C@H](OC(=O)c5cn(-c6ccc(F)cc6)nn5)C(=O)C4(C)C)[C@]3(C)C(=O)C[C@]12C | 80 | 65.3 | 36.4 | 2.58 | 87.4 | 71.9
44 |  | COc1ccc(-n2cnn(CC(=O)O[C@H]3C[C@@H]4C(=CC[C@@H]5[C@@]4(C)C(=O)C[C@]4(C)[C@@H]([C@@](C)(O)C(=O)/C=C/C(C)(C)OC(C)=O)[C@H](O)C[C@@]54C)C(C)(C)C3=O)c2=O)cc1 | 33 | 64.3 | 31.4 | 0.75 | 83.3 | 70.8
 | 6.8 | CC1(C)C(=O)[C@@H](O)C[C@@H]2C1=CC[C@@H]1[C@@]2(C)C(=O)C[C@]2(C)[C@@H]([C@@](C)(O)C(=O)/C=C/C(C)(C)c3cccc(C#N)c3)[C@H](O)C[C@@]12C |  |  |  |  |  | 
79 |  | CC(=O)OC(C)(C)/C=C/C(=O)[C@](C)(O)[C@H]1[C@H](O)C[C@@]2(C)[C@@H]3CC=C4[C@@H](C[C@H](OC(=O)c5ccccn5)C(=O)C4(C)C)[C@]3(C)C(=O)C[C@]12C | 34 | 67.9 | 44.8 | 0.43 | 83.1 | 71.2
